# Assay results: ChEMBL document CHEMBL5126514, “Molecular design of dual inhibitors of PI3K and potential molecular target of cancer for its treatment: A review” (Eur J Med Chem, 2022)
# Experiments:
# [1] = biological target: T1, Phosphatidylinositol 4,5-bisphosphate 3-kinase catalytic subunit alpha isoform (Homo sapiens, UniProt P42336); test: Inhibition of PI3Kalpha (unknown origin) expressed in baculovirus expression system using L-alpha-phosphatidylinositol as substrate by luminescence assay
# Histone deacetylase 1 = Histone deacetylase 1 (Homo sapiens, UniProt Q13547); test: Inhibition of full-length HDAC1 (unknown origin) by Color-de-Lys assay
# [2] = biological target: T2, Phosphatidylinositol 4,5-bisphosphate 3-kinase catalytic subunit delta isoform (Homo sapiens, UniProt O00329); test: Inhibition of PI3Kdelta (unknown origin) expressed in baculovirus expression system using L-alpha-phosphatidylinositol as substrate by luminescence assay
# T2 sequence (O00329 whole entry): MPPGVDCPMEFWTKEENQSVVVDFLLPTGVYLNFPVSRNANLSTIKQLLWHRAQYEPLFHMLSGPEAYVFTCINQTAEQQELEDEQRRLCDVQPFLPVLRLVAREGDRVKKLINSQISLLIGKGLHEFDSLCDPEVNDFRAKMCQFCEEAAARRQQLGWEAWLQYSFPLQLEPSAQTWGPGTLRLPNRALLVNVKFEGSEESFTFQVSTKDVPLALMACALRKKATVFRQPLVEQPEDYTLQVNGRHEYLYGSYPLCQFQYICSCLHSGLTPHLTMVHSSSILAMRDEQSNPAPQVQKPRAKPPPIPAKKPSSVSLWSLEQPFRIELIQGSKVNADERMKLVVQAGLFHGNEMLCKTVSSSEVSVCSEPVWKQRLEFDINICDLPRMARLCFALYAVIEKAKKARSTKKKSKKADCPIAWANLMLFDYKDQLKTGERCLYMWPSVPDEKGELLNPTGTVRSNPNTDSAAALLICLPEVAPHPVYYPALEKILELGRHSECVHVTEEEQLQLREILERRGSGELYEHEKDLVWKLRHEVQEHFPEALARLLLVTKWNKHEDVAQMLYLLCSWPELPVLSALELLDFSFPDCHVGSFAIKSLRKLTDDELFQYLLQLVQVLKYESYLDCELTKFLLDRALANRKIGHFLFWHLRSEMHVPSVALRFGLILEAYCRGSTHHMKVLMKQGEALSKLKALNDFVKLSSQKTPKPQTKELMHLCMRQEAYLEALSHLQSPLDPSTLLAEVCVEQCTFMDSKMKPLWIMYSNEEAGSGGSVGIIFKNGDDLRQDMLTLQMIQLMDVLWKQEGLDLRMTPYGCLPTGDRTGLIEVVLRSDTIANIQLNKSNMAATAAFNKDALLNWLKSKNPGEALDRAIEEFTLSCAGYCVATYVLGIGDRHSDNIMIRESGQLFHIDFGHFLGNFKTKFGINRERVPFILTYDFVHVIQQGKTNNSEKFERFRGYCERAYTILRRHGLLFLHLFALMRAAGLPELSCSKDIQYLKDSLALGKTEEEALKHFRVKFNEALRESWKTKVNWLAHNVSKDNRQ
# SCC-4 = test: Anticancer activity against human SCC-4 cells assessed as growth inhibition; format: functional, cell-based
# [3] = Anticancer activity against human TU183 cells assessed as growth inhibition; format: functional, cell-based
# KB = test: Anticancer activity against human KB cells assessed as growth inhibition; format: functional, cell-based
# [4] = biological target: T3, Protein deacetylase HDAC6 (Homo sapiens, UniProt Q9UBN7); test: Inhibition of full-length HDAC6 (unknown origin) by Color-de-Lys assay
# T3 sequence (Q9UBN7 whole entry): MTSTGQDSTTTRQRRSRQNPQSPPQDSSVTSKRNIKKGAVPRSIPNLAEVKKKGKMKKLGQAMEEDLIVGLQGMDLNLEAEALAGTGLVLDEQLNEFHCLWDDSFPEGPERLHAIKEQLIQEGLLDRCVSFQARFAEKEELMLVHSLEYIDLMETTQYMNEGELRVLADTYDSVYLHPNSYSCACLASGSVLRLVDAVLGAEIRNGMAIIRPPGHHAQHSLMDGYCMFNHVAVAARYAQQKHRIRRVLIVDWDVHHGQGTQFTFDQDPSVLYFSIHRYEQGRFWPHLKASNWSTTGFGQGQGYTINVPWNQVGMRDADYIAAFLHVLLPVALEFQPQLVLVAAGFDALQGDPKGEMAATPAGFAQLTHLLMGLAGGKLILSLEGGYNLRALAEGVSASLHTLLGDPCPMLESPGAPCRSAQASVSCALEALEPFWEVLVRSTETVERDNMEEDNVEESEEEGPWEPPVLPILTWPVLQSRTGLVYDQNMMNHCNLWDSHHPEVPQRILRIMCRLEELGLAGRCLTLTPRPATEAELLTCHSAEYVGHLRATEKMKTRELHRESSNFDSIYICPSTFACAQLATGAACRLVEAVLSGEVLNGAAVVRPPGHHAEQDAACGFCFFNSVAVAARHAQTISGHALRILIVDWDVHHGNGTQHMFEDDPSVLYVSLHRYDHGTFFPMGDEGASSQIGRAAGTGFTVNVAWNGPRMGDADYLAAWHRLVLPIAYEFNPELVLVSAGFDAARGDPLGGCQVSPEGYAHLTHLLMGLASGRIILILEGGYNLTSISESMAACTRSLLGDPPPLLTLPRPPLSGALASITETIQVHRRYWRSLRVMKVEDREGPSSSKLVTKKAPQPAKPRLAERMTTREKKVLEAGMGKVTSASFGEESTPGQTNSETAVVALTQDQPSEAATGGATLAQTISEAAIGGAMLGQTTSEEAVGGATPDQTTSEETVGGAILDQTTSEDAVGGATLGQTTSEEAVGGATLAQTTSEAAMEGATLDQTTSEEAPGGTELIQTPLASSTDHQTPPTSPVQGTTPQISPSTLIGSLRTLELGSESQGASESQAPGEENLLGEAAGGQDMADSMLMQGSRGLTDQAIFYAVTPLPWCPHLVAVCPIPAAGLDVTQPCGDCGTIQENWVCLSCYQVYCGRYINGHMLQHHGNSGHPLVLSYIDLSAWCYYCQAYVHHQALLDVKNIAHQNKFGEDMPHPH
# [5] = Inhibition of mTORC1 (unknown origin); design: species or system Homo sapiens
# [6] = Inhibition of PI3K (unknown origin); design: species or system Homo sapiens
# [7] = biological target: T1, Phosphatidylinositol 4,5-bisphosphate 3-kinase catalytic subunit alpha isoform; test: Inhibition of PI3Kalpha (unknown origin)
# [8] = biological target: T4, Mitogen-activated protein kinase; ERK1/ERK2 (Homo sapiens) (UniProt P27361+P28482); test: Inhibition of Erk1/2 phosphorylation in human A549 cells; format: cell-based; conditions: concentration not given here
# [9] = biological target: T4, Mitogen-activated protein kinase; ERK1/ERK2 (Homo sapiens); test: Inhibition of Erk1/2 phosphorylation in human PANC-1 cells at 5 uM relative to control; format: cell-based
# A549 = test: Anticancer activity against human A549 cells assessed as cell killing activity at 10 uM relative to control; format: functional
# PANC-1 = test: Anticancer activity against human PANC-1 cells assessed as cell killing activity at 25 uM relative to control; format: functional
# [10] = biological target: T1, Phosphatidylinositol 4,5-bisphosphate 3-kinase catalytic subunit alpha isoform; test: Inhibition of full-length PI3Kalpha (unknown origin) expressed in baculovirus infected Sf9 cells by ADP-Glo luminescent kinase assay
# [11] = biological target: Phosphatidylinositol 4,5-bisphosphate 3-kinase catalytic subunit beta isoform (Homo sapiens, UniProt P42338); test: Inhibition of full-length PI3Kbeta (unknown origin) expressed in baculovirus infected Sf9 cells by ADP-Glo luminescent kinase assay
# [12] = biological target: T2, Phosphatidylinositol 4,5-bisphosphate 3-kinase catalytic subunit delta isoform; test: Inhibition of full-length PI3Kdelta (unknown origin) expressed in baculovirus infected Sf9 cells by ADP-Glo luminescent kinase assay
# [13] = biological target: T5, Polyamine deacetylase HDAC10 (Homo sapiens, UniProt Q969S8); test: Inhibition of full-length HDAC10 (unknown origin) by Color-de-Lys assay
# T5 sequence (Q969S8 whole entry): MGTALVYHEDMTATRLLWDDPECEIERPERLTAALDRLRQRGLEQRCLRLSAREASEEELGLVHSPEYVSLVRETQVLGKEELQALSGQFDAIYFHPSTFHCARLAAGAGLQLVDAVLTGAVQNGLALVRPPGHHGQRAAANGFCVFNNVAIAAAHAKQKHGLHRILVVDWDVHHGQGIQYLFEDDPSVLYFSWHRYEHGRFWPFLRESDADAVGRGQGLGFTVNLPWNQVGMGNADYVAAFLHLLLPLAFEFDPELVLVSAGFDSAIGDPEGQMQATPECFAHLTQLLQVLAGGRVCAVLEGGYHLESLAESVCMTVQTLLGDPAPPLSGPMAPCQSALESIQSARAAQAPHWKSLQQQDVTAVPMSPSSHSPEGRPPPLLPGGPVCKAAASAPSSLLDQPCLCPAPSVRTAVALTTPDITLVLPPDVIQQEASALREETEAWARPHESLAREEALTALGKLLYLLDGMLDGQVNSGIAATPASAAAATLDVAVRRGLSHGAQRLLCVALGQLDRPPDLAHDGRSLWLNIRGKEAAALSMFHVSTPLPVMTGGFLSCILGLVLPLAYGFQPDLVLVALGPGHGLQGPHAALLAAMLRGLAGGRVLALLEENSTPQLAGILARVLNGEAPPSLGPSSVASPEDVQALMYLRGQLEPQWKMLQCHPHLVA
# [14] = biological target: T2, Phosphatidylinositol 4,5-bisphosphate 3-kinase catalytic subunit delta isoform; test: Inhibition of PI3Kdelta (unknown origin)
# [15] = biological target: Phosphatidylinositol 4,5-bisphosphate 3-kinase catalytic subunit gamma isoform (Homo sapiens, UniProt P48736); test: Inhibition of PI3Kgamma (unknown origin) expressed in baculovirus expression system using L-alpha-phosphatidylinositol as substrate by luminescence assay
# Sequence of Phosphatidylinositol 4,5-bisphosphate 3-kinase catalytic subunit gamma isoform (P48736 whole entry, canonical isoform): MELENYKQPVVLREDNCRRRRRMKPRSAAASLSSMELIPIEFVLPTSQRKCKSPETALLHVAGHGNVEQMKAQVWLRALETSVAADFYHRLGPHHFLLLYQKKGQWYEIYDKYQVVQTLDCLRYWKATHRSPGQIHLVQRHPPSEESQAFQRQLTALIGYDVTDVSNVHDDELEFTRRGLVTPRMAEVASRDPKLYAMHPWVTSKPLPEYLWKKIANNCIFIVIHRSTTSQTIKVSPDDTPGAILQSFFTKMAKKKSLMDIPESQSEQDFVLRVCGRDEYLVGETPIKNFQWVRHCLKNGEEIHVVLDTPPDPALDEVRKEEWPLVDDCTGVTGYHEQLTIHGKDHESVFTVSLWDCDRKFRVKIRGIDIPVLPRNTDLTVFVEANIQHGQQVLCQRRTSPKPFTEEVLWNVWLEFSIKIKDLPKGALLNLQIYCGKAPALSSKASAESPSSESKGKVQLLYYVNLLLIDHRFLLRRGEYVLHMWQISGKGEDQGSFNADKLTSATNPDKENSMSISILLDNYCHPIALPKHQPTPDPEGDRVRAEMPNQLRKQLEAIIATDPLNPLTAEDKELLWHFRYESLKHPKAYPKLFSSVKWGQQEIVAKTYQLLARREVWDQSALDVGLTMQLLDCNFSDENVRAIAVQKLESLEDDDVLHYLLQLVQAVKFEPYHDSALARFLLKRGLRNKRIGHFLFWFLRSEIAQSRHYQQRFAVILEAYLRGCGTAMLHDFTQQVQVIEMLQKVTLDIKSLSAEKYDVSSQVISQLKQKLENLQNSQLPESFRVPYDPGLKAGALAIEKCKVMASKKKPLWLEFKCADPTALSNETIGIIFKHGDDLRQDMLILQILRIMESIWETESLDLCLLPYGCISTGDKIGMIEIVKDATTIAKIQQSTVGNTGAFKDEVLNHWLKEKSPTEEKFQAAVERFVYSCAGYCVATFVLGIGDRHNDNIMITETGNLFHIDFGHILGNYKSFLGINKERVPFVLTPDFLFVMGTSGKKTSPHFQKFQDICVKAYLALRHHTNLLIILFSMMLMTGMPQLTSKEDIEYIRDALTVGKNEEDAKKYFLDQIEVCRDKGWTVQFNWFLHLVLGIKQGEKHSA
# Sequence of Histone deacetylase 1 (Q13547 whole entry, canonical isoform): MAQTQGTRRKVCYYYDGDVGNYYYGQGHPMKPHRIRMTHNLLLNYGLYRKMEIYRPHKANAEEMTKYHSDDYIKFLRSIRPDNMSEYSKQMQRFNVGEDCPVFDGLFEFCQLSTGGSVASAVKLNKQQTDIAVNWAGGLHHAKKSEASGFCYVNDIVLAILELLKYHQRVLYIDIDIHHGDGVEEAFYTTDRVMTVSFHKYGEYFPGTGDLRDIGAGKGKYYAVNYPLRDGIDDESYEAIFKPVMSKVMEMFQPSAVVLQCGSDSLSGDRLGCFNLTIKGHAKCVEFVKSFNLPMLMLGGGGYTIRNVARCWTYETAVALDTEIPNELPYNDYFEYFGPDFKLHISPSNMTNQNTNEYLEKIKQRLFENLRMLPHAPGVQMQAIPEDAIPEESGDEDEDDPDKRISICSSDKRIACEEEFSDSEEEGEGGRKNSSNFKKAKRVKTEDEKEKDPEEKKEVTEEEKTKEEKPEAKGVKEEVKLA
# T1 sequence (P42336 whole entry, canonical isoform): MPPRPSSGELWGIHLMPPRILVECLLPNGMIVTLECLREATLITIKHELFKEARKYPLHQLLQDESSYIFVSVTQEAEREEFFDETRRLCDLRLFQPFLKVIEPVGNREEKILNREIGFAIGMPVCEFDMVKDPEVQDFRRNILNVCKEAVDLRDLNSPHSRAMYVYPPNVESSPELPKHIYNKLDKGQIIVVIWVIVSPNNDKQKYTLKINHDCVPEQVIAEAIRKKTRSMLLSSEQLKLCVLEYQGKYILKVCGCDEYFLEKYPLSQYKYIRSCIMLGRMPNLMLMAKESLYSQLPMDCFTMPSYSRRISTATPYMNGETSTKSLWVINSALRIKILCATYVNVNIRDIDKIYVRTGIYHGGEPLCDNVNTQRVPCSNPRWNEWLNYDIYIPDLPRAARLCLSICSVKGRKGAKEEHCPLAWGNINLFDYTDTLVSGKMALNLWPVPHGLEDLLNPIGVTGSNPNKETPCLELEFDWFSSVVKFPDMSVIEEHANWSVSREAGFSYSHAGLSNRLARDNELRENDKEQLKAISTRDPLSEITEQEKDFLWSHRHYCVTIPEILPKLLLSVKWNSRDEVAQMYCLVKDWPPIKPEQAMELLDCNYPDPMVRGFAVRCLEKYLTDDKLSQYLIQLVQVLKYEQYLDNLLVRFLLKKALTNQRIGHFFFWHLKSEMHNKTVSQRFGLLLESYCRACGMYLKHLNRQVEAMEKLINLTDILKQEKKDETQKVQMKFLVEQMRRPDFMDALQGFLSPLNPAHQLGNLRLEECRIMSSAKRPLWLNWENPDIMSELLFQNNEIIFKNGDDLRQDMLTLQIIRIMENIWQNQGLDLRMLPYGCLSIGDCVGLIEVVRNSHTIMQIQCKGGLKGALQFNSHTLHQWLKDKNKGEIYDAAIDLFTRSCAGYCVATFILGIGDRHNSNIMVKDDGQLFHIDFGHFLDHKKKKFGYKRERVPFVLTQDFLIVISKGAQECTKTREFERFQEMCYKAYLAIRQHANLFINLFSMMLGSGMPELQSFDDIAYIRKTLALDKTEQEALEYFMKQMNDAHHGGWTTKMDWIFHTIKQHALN
# T4 sequence (P27361 whole entry, looked up): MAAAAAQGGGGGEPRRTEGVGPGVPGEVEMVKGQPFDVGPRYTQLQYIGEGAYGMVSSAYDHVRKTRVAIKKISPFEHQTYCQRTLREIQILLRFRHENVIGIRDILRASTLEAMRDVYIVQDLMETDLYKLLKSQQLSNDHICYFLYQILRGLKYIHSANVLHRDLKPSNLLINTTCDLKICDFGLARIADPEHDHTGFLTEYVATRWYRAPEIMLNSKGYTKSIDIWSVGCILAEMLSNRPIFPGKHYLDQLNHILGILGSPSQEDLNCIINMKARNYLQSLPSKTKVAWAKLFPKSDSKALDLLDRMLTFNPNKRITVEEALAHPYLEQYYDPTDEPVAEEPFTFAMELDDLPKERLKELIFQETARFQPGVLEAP
# T4 sequence (P28482 whole entry, looked up): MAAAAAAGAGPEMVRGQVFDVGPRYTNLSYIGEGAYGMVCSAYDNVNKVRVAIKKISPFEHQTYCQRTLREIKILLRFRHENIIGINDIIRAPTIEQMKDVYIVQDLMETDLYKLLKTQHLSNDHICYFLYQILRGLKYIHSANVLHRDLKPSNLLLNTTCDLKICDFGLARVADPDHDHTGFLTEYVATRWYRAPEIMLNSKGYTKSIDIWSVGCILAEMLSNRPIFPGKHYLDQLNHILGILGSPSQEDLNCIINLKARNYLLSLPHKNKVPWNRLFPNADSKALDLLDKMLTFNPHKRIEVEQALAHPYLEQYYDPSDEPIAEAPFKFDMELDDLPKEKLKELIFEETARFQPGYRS
# Sequence of Phosphatidylinositol 4,5-bisphosphate 3-kinase catalytic subunit beta isoform (P42338 whole entry, canonical isoform): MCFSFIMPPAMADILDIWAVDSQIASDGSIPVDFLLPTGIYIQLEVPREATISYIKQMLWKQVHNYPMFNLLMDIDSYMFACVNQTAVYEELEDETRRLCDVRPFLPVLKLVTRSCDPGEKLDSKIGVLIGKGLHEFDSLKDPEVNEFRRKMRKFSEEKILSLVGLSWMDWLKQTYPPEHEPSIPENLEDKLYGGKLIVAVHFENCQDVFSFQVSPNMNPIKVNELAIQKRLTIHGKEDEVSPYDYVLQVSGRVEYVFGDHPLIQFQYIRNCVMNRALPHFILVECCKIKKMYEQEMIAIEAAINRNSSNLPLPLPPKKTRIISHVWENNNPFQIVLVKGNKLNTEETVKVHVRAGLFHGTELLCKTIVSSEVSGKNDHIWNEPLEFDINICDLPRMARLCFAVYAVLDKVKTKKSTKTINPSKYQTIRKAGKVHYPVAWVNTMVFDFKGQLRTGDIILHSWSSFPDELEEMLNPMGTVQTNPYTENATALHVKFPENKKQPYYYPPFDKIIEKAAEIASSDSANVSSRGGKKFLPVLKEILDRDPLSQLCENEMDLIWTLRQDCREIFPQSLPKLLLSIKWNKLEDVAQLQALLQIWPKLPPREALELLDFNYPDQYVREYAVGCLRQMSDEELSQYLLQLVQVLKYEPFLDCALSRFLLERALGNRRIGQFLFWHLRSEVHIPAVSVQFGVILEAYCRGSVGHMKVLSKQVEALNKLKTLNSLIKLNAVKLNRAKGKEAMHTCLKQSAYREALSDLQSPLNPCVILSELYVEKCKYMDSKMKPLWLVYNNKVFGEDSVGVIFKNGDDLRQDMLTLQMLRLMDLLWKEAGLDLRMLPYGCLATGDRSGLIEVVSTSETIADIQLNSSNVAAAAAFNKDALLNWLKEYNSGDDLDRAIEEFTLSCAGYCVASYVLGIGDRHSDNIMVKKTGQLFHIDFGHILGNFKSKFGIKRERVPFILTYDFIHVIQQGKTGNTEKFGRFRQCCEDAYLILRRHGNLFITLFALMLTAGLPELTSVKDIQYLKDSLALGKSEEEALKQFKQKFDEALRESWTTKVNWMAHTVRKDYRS
compound,measurement,setting,value
COc1ncc(-c2cc(OCCCCCCC(=O)NO)c3nc(N)nc(C)c3c2)cc1F,IC50,[1],42 nM
same,IC50,Histone deacetylase 1,1.4 nM
COc1ccc(-c2ccc3ncc4c(c3c2)n(-c2ccc(N3CCNCC3)c(C(F)(F)F)c2)c(=O)n4C)cn1 [BGT-226 FREE BASE],IC50,[2],38 nM
same,IC50,SCC-4,7.4 nM
same,IC50,[3],7.4 nM
same,IC50,KB,7.4 nM
O=C(NO)c1ccc(/C=N/NC(=O)c2ccnc(-c3ccccc3)n2)cc1,IC50,[4],18.7 nM
COc1ncc(-c2ccc3nccc(-c4ccnnc4)c3c2)cc1NS(=O)(=O)c1ccc(F)cc1F [OMIPALISIB],IC50,[5],0.04 nM
same,IC50,[6],0.3 nM
Cc1c(Cc2cccc(N(C)S(=O)(=O)CCCNCCCCCC(=O)N3CCN(c4nc(N5CCOCC5)nc(-n5c(C(F)F)nc6ccccc65)n4)CC3)c2)c(=O)oc2cc(OC(=O)N(C)C)ccc12,IC50,[7],172 nM
same,inhibition,[8],35%
same,inhibition,[9],35%
same,inhibition at 10 µM,A549,50%
same,inhibition at 25 µM,PANC-1,50%
Cn1cc(CNCC2CCN(c3ncc(C(=O)NO)cn3)CC2)c2ccccc21 [QUISINOSTAT],IC50,[10],19 nM
same,IC50,[11],54 nM
same,IC50,[12],39 nM
same,IC50,[13],2.8 nM
O=C(NOCCOCCOCCOCCN1CCN(c2nc(N3CCOCC3)nc(-n3c(C(F)F)nc4ccccc43)n2)CC1)c1ccc(F)c(F)c1Nc1ccc(I)cc1F,IC50,[14],182 nM
COc1ncc(-c2cc(OCCN(C)c3ncc(C(=O)NO)cn3)c3nc(N)nc(C)c3c2)cc1C,IC50,[1],226 nM
same,IC50,Histone deacetylase 1,1.3 nM
CCn1c(=O)c(-c2cc[nH]n2)cc2c(C)nc(N)nc21 [VOXTALISIB],IC50,[2],9 nM
same,IC50,[15],43 nM
COc1c(OCCCCCC(=O)NO)ccc2c1N=C(NC(=O)c1ccccc1)N1CCN=C21,IC50,[1],50 nM
same,IC50,Histone deacetylase 1,2.98 nM
